Patent US8563583B2, “Pyridone analogs useful as melanin concentrating hormone receptor-1 antagonists” (Bristol-Myers Squibb Company, priority 2009, dated 2013)
Structures can show the parent of a compound that is named as a salt.

These molecules were tested on SPRAGUE DAWLEY® rats (assay: Assessment of in vivo MCHR1 activity: weight change in rats given a choice of chow and high fat/high sucrose diet). Details: 30 mg/kg p.o. daily for four days.
Set-up: species or system rat
Description: Male SPRAGUE DAWLEY® (CD, Charles River Breeding Laboratory) rats weighing approximately 240 grams were placed in individual plastic cages with ALPHADRI® bedding. The room was maintained at 72° F. and 50% humidity, and a 12/12 light dark cycle with lights out at 1600 hours. The rats were conditioned for 5 days prior to the start of the study to having a choice of foods.
Baseline body weight was measured prior to drug treatment on day 0 of the study. Baseline food consumption was the average of the 3 days prior to the first drug treatment. Drug was administered daily p.o. at 2.0 ml/kg at 1500 hours beginning on day 0 and continuing daily through day 4 as a suspension in 0.5% methyl cellulose, 0.1% Tween 80 in water at 3.0, 10 and 30 mg/kg p.o. All data were evaluated using ANOVA and Fishers PLSD statistics.
With COc1cc(-n2ccc(COc3ccc(Cl)cc3)cc2=O)ccc1OCC(C)(C)OC(=O)CN [Example P-1, 1-(4-(4-((4-Chlorophenoxy)methyl)-2-oxopyridin-1(2H)-yl)-2-methoxyphenoxy)-2-methylpropan-2-yl 2-aminoacetate hydrochloride] the “% Weight change versus Control after daily Administration of drug at 30 mg/kg for four days” value was 3.4%. With COc1cc(-n2ccc(OCc3ccc(Cl)cc3)cc2=O)ccc1OCC(C)(C)OC(=O)CN [Example P-3] the “% Weight change versus Control after daily Administration of drug at 30 mg/kg for four days” value was 6.1%.

These molecules were tested against human melanin concentrating hormone receptor (MCHR1) (Homo sapiens (Human), UniProt Q99705, A5T/E4Q) (assay: Radioligand binding assay for assessment of MCHR1 activity). Details: competition with [Phe13,[125I]Tyr19]-MCH; membranes of HEK-293 cells expressing mutated hMCHR1.
Chain of human melanin concentrating hormone receptor (MCHR1) (Q99705 whole entry E4Q/A5T): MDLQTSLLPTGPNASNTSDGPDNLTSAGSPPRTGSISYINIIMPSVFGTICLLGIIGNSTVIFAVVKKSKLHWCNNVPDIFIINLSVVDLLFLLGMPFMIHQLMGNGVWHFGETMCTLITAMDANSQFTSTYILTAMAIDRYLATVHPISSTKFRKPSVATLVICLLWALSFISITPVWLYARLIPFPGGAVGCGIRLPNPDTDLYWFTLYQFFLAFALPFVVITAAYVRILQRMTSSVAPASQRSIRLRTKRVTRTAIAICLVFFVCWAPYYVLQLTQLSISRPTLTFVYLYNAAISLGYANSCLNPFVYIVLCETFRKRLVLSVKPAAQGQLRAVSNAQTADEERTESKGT
Description: Compounds of Formula I were initially characterized in an in vitro binding assay to determine their Ki or ability to antagonize binding of a peptide agonist to the human melanin concentrating hormone receptor (MCHR1). Representative compounds of the present invention had the following Ki values:
Membranes from stably transfected HEK-293 cells expressing a mutated (E4Q, AST) hMCHRI receptor were prepared by dounce homogenization and differential centrifugation. Binding experiments were carried out with 0.5-1.0 ug of membrane protein incubated in a total of 0.2 ml in 25 mM HEPES (pH 7.4) with 10 mM MgCl2, 2 mM EGTA, and 0.1% BSA (Binding Buffer) for 90 min. For competition binding assays, reactions were carried out in the presence of with 0.06-0.1 nM [Phe^13, [^125I]Tyr^19]-MCH and increasing concentrations of unlabeled test molecules. Reactions were terminated by rapid vacuum filtration over 96 well-GFC Unifilter plates pre-coated with 0.075 ml binding buffer containing 1% BSA, and washed 3 times with 0.4 ml of Phospho-buffered Saline (pH 7.4) containing 0.01% TX-100. Filters were dried; 0.05 ml microscint 20 was added to each well and radioactivity was subsequently quantified by scintillation counting on a TOPCOUNT® microplate scintillation counter (Packard). Inhibitory constants were determined by nonlinear least squares analysis using a four parameter logistic equation.
COc1cc(-n2ccc(-c3ccc(OC(F)(F)F)cc3)cc2=O)ccc1OCCO [Example C-1] showed a Ki of 3 nM. With COc1cc(-n2ccc(COc3ccccc3)cc2=O)ccc1OCC(C)(C)O [Example A-6] the Ki was 2340 nM. In the case of COc1cc(-n2ccc(CNc3ccc(Cl)cc3)cc2=O)ccc1OCC(C)(C)O [Example A-33], the Ki is reported as 500 nM. COc1cc(-n2ccc(SCc3ccc(Cl)cc3)cc2=O)ccc1OCC(C)(C)O [Example D-4, 4-(4-Chlorobenzylthio)-1-(4-(2-hydroxy-2-methylpropoxy)-3-methoxyphenyl)pyridin-2(1H)-one] was tested, and the Ki was 4 nM. COc1cc(-n2ccc(-c3ccc(C(F)(F)F)cc3)cc2=O)ccc1OCC(C)(C)O [Example B-2] was tested, and the Ki was 7 nM. Molecule COc1cc(-n2ccc(CSc3ccc(Cl)cc3)cc2=O)ccc1OCC(C)(C)O [Example A-29] has a Ki of 29 nM.
